Measured values from publication PMC9097457 (The Journal of Biological Chemistry, 2022).

Key:
[1] = test system: mitochondrial polymerase γ; details: cited from earlier work
[2] = molecular target: T1, deoxyguanosine kinase (dGK) (Rattus norvegicus, UniProt A0A0G2K478); assay: Tissue-specific phosphorylation of [3H]-dG, [3H]-dA and [3H]-ETV in isolated mitochondria; format: biochemical; details: 2 h; for dG converted to phosphorylated products: 1 μM
T1 sequence (A0A0G2K478 with tags, fused parts or gaps): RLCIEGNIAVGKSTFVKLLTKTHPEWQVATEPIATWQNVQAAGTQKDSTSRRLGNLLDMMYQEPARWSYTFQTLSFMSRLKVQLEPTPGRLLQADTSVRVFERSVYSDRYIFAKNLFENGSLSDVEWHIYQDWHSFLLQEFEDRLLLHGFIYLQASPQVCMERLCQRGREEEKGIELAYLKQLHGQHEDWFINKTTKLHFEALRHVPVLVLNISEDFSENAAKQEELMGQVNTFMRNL
Protocol: As noted in the Experimental procedures, these were added together to determine total phosphorylation.
(§1) To measure and compare phosphorylation and kinetics, a stable substrate concentration was necessary and EHNA (5 μM) ([50]) and I-H (2.0 μM) ([49]) were added to all mitochondrial incubations. […] The mitochondria were incubated in vitro for up to 2 h at 37 °C in a shaker bath. At the end of the incubation, reactions were terminated by addition of 10% TCA to an equal volume of incubation mixture (175 μl) and spun in a microcentrifuge to remove precipitates. The supernatant was neutralized with AG 11 A8 resin and filtered through a […] nylon syringe filter. The neutralized and filtered supernatants were analyzed by ultra high pressure liquid chromatography (UPLC). Radioactivity was determined from aliquots of each sample and processed through a Beckman Coulter multipurpose liquid scintillation counter (model 6500).
Extent of phosphorylation was measured and analyzed by UPLC (Agilent 1290) with a reverse-phase C18 column (Zorbax Eclipse Plus C18; 3.0 × 150 mm, 1.8 micron) coupled with an inline diode array to detect UV signal at 254 nm and to an inline liquid scintillation counter (β-Ram) to quantitate radioactivity.
(§2) The radioactivity in each of these peaks was quantitated and totaled to provide the total amount of radioactivity in the phosphorylated products for each labeled precursor. This total was divided by the specific radioactivity of the precursor and expressed as pmol/mg protein/hr. The Kms were calculated from Lineweaver–Burk plots 1/Vo=Km/Vmax[S]+1/Vmax

[3] = test system: isolated rat heart; assay: Phosphorylation of [3H]-ETV, [3H]-dG and [3H]-dA in the isolated perfused rat heart (Langendorff); details: 60-min perfusion
Protocol: The phosphorylation of [^3H]-dG, [^3H]-dA, and [^3H]-ETV in isolated mitochondria depends on the activity of the mitochondrial dGK. To determine the degree of phosphorylation in a whole tissue, which would include the activity of the cytosolic dCK, we utilized an isolated rat heart Langendorff retrograde perfusion model. The breakdown and phosphorylation of [^3H]-ETV, [^3H]-dG, and [^3H]-dA (0.5 μM each) was measured in the perfusates and in the hearts after 60 min of perfusion (Fig. 9, A and B). […] However, the heart was still able to take up and maintain a small amount of dG to generate 0.18 ± 0.05 pmol/mg wet heart of phosphorylated dG during the 60-min perfusion. […] Despite the loss of [^3H]-dA from the perfusate, the heart took up and maintained enough dA to produce 0.48 ± 0.08 pmol/mg wet heart of phosphorylated [^3H]-dA products at 60 min (Fig. 9B). […] Note that [^3H]-dG and [^3H]-dG catabolites equilibrate rapidly between the perfusion buffer and the heart, while the phosphorylated forms of [^3H]-dG are retained solely in the heart tissue.
Figure 9 [^3H]-ETV and [^3H]-dG phosphorylation in a perfused rat heart. Rat hearts were removed and perfused using the Langendorff method for 1 h as described in Experimental procedures with 0.5 μM [^3H]-ETV, 0.5 μM [^3H]-dG), or 0.5 μM [^3H]-dA. […] A, the amount of exogenous [^3H]-parent compound in the perfusate as a function of time, plotted as a box plot of three independent experiments. See text for details. B, the amount of phosphorylated [^3H]-ETV, [^3H]-dG, or [^3H]-dA in the heart tissue after 60 min of perfusion with additions as noted in (A). See text for details.
Rat hearts were perfused by Langendorff retrograde perfusion apparatus with [^3H]-dG, [^3H]-dA, or [^3H]-ETV for 60 min under the conditions previously described ([25], [26], [51]). Perfused hearts were snap frozen into wafers by clamping the heart in liquid nitrogen, and the frozen tissue wafers were stored in −80 °C until processed as previously described for ([24]) UPLC analysis.

[4] = test system: heart mitochondria; assay: Conversion of [3H]-dGMP to [3H]-dGTP in isolated heart mitochondria; format: biochemical, rat; details: 1 μM precursor
Protocol: Thus, we were interested in determining if the dGTP and dATP phosphorylation pathway in isolated mitochondria functioned similarly.
[^3H]-dGMP (1 μM) or [^3H]-dAMP (1 μM) was incubated in heart mitochondria as described for Figure 1 for the times shown, and their conversion to [^3H]-dGTP and [^3H]-dATP, respectively, determined in the presence and absence of Ap5A ([…]), a competitive inhibitor of adenylate kinase. Data are shown as a box plot of two independent experiments. The thickness of the lines indicates the spread of the duplicates. Ap5A, P1,P5-di(adenosine-5) pentaphosphate pentasodium salt.
as §1

[5] = molecular target: T1, deoxyguanosine kinase (dGK); assay: Inhibition of [3H]-dA phosphorylation by competing deoxynucleosides in liver mitochondria; format: biochemical; details: IC50 values at 1 μM substrate
Protocol: as §1, §2

[6] = molecular target: T1, deoxyguanosine kinase (dGK); assay: Kinetic analysis of [3H]-dG and [3H]-ETV phosphorylation and cross inhibition in heart mitochondria; format: biochemical; details: absence of ETV, data of Figure 4
Protocol: as §1, §2

[7] = test system: isolated rat heart; assay: Breakdown of the [3H]-parent compound in the perfusate of the isolated perfused rat heart; format: in vitro ADME; details: 0.5 μM [3H]-dG alone
Protocol: To determine the degree of phosphorylation in a whole tissue, which would include the activity of the cytosolic dCK, we utilized an isolated rat heart Langendorff retrograde perfusion model.
See text for details. […] See text for details.
Perfused hearts were snap frozen into wafers by clamping the heart in liquid nitrogen, and the frozen tissue wafers were stored in −80 °C until processed as previously described for ([24]) UPLC analysis.

[8] = molecular target: T1, deoxyguanosine kinase (dGK); assay: Kinetic analysis of [3H]-dA phosphorylation in the presence of dG or ETV in liver mitochondria; format: biochemical; details: 0.12 μM inhibitor, 4 μM dA
Protocol: as §1

[9] = molecular target: T2, purine nucleoside phosphorylase (PNP) (Rattus norvegicus, UniProt P85973)
T2 sequence (P85973 1-289): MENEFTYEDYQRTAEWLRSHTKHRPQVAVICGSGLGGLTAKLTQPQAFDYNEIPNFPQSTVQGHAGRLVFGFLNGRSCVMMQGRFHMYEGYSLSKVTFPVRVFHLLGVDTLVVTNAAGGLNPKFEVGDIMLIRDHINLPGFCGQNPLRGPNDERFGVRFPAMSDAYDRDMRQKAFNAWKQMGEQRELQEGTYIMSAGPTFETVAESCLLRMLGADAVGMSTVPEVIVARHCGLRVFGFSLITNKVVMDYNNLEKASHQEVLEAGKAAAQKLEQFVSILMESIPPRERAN
Protocol: To measure and compare phosphorylation and kinetics, a stable substrate concentration was necessary and EHNA (5 μM) ([50]) and I-H (2.0 μM) ([49]) were added to all mitochondrial incubations. […] The mitochondria were incubated in vitro for up to 2 h at 37 °C in a shaker bath. At the end of the incubation, reactions were terminated by addition of 10% TCA to an equal volume of incubation mixture (175 μl) and spun in a microcentrifuge to remove precipitates. The supernatant was neutralized with AG 11 A8 resin and filtered through a 0.2-μM nylon syringe filter. The neutralized and filtered supernatants were analyzed by ultra high pressure liquid chromatography (UPLC). Radioactivity was determined from aliquots of each sample and processed through a Beckman Coulter multipurpose liquid scintillation counter (model 6500).

| Structure (SMILES) | recognition by mitochondrial polymerase γ [1] | dG phosphorylated more readily than dA ([2]; 1 μM each, brain, heart, kidney, liver mitochondria) [fold] | dG converted to phosphorylated products ([2]; heart mitochondria) | dG converted to phosphorylated products ([2]; liver mitochondria) | phosphorylated [3H]-dG in heart ([3]; 0.5 μM [3H]-dG + I-H 2 μM (legend: + I-H and EHNA)) [pmol/mg wet heart] | phosphorylated product in heart ([3]; 0.5 μM labeled compound alone) [pmol/mg wet heart] | conversion to [3H]-dGTP at the 30-min time point [4] [pmol/mg protein] | inhibition of dA phosphorylation more potent than ETV inhibition of dG phosphorylation [5] [fold] | rate of [3H]-dG phosphorylation to [3H]-dGTP, control [6] [pmol/mg protein/hr] | parent compound in the perfusate by 60 min [7] | parent compound in the perfusate within 3 min [7] [%] | parent compound in the perfusate, initial level [7] [%] | inhibition of dA phosphorylation [8] | stability in heart mitochondria ([9]; heart mitochondria, initial studies) | conversion of [3H]-dG to breakdown products ([9]; kidney mitochondria, 60 min, no inhibitor) [%] |
| --- | --- | --- | --- | --- | --- | --- | --- | --- | --- | --- | --- | --- | --- | --- | --- |
| C=C1C(COP(=O)(O)OP(=O)(O)OP(=O)(O)O)C(O)CC1n1cnc2c(=O)[nH]c(N)nc21 (stereo not drawn) [ETV-triphosphate] | not recognized | – | – | – | – | – | – | – | – | – | – | – | – | – | – |
| Nc1nc2c(ncn2[C@H]2C[C@H](O)[C@@H](CO)O2)c(=O)[nH]1 [dG, deoxyguanosine] | – | 10 | 30 pmol/mg mitochondrial protein | 60 pmol/mg mitochondrial protein | 0.57 ± 0.08 | 0.18 ± 0.05 | 22.4 ± 0.8 | 500 | 45.9 ± 1.8 | nearly completely converted to catabolites | 25 ± 8.8 | 86.8 ± 0.7 | nearly completely inhibited | stable | 22 |
